Measurements from PubChem BioAssay AID200 (DTP/NCI, 2004).
Where “and” joins values, the source holds several entries; their conditions need not be identical. Equal values may be shown once. Inconclusive results and toxic doses are left out. Where a SMILES comes first, the peptide text is derived from it. [ ]: non-standard residue; d: D form. The star is where a group is joined. Cbz = O=C(OCc1ccccc1)*; Nva = CCC[CH](N)C(=O)O

Tested on: B6C3F1 mice, B16 melanoma ip, median survival T/C
Test: NCI In Vivo Anticancer Drug Screen. Data for tumor model B16 Melanoma (intraperitoneal) in B6C3F1 mice
Details: endpoint: median survival time, higher = longer survival
Outline: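 Tumor-bearing mice received test compound; a separate group got vehicle only. Survival was then compared, with results reported as treated over control.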

[1] = dose: 3.12 mg/kg/injection, schedule: Q01DX009 (ip), vehicle: Klucel (hydroxypropylcellulose) (HPC)
[2] = dose: 6.25 mg/kg/injection, schedule: Q01DX009 (ip), vehicle: Klucel (hydroxypropylcellulose) (HPC)
[3] = dose: 6.25 mg/kg/injection, schedule: Q01DX009 (ip), vehicle: saline with Tween-80
[4] = dose: 12.5 mg/kg/injection, schedule: Q01DX009 (ip), vehicle: Klucel (hydroxypropylcellulose) (HPC)
[5] = dose: 12.5 mg/kg/injection, schedule: Q01DX009 (ip), vehicle: saline with Tween-80
[6] = dose: 25.0 mg/kg/injection, schedule: Q01DX009 (ip), vehicle: Klucel (hydroxypropylcellulose) (HPC)
[7] = dose: 25.0 mg/kg/injection, schedule: Q01DX009 (ip), vehicle: saline with Tween-80
[8] = dose: 50.0 mg/kg/injection, schedule: Q01DX009 (ip), vehicle: Klucel (hydroxypropylcellulose) (HPC)
[9] = dose: 50.0 mg/kg/injection, schedule: Q01DX009 (ip), vehicle: saline with Tween-80
[10] = dose: 100.0 mg/kg/injection, schedule: Q01DX009 (ip), vehicle: Klucel (hydroxypropylcellulose) (HPC)
[11] = dose: 100.0 mg/kg/injection, schedule: Q01DX009 (ip), vehicle: saline with Tween-80
[12] = dose: 200.0 mg/kg/injection, schedule: Q01DX009 (ip), vehicle: saline with Tween-80
[13] = dose: 200.0 mg/kg/injection, schedule: Q01DX009 (ip), vehicle: Klucel (hydroxypropylcellulose) (HPC)
[14] = dose: 50.0 mg/kg/injection, schedule: Q01DX009 (ip), vehicle: saline
[15] = dose: 100.0 mg/kg/injection, schedule: Q01DX009 (ip), vehicle: saline

CC(=O)O[C@@H]1CO[C@H]2O[C@H]3[C@@H](C(C=O)=C[C@H](O)[C@@H]4C5=C(C(C)C)CC[C@]5(C)CC[C@@]34C)[C@@]2(O)C1=O
T/C (dose: 0.75 mg/kg/injection, schedule: Q01DX009 (ip), vehicle: Klucel (hydroxypropylcellulose) (HPC)): 89 % of control | T/C (dose: 1.5 mg/kg/injection, schedule: Q01DX009 (ip), vehicle: Klucel (hydroxypropylcellulose) (HPC)): 94 % of control | T/C (dose: 3.0 mg/kg/injection, schedule: Q01DX009 (ip), vehicle: Klucel (hydroxypropylcellulose) (HPC)): 88 % of control

Cc1nn(CCO)c(C)c1N=[N+]([O-])c1c(C)nn(CCO)c1C
T/C [1]: 107 % of control | T/C (dose: 3.12 mg/kg/injection, schedule: Q01DX009 (ip), vehicle: saline with Tween-80): 97 % of control | T/C [2]: 109 % of control | T/C [3]: 100 % of control | T/C [4]: 111 % of control | T/C [5]: 92 % of control | T/C [6]: 95 % of control | T/C [7]: 92 % of control | T/C [8]: 91 % of control | T/C [9]: 96 % of control | T/C [10]: 91 % of control

NC(CC(=O)CCl)C(=O)O (centres undefined)
T/C [2]: 106 % of control | T/C [4]: 101 % of control

CC(C)([NH-])CO.CC(C)([NH-])CO.[Cl][Cd][Cl]
T/C (dose: 0.31 mg/kg/injection, schedule: Q01DX009 (ip), vehicle: saline with Tween-80): 90 % of control | T/C (dose: 0.63 mg/kg/injection, schedule: Q01DX009 (ip), vehicle: saline with Tween-80): 89 % of control | T/C (dose: 1.25 mg/kg/injection, schedule: Q01DX009 (ip), vehicle: saline with Tween-80): 87 % of control

O=C(Nc1ccccc1)c1c(O)[nH]c(=S)[nH]c1=O
T/C (dose: 6.0 mg/kg/injection, schedule: Q01DX009 (ip), vehicle: saline with Tween-80): 108 % of control | T/C [5]: 114 % of control and 115 % of control | T/C (dose: 44.0 mg/kg/injection, schedule: Q01DX009 (ip), vehicle: saline with Tween-80): 153 % of control | T/C (dose: 56.0 mg/kg/injection, schedule: Q01DX009 (oral), vehicle: saline with Tween-80): 111 % of control | T/C (dose: 67.0 mg/kg/injection, schedule: Q01DX009 (ip), vehicle: saline with Tween-80): 161 % of control | T/C (dose: 83.0 mg/kg/injection, schedule: Q01DX009 (oral), vehicle: saline with Tween-80): 117 % of control | T/C (dose: 100.0 mg/kg/injection, schedule: Q01DX005 (oral), vehicle: saline with Tween-80): 110 % of control | T/C (dose: 124.0 mg/kg/injection, schedule: Q01DX009 (oral), vehicle: saline with Tween-80): 114 % of control | T/C (dose: 149.0 mg/kg/injection, schedule: Q01DX005 (oral), vehicle: saline with Tween-80): 118 % of control | T/C (dose: 185.0 mg/kg/injection, schedule: Q01DX009 (oral), vehicle: saline with Tween-80): 121 % of control | T/C (dose: 223.0 mg/kg/injection, schedule: Q01DX005 (oral), vehicle: saline with Tween-80): 114 % of control | T/C (dose: 333.0 mg/kg/injection, schedule: Q01DX005 (oral), vehicle: saline with Tween-80): 116 % of control

Cc1ccc(Cl)c2ccccc12
T/C [5]: 101 % of control and 104 % of control | T/C [7]: 100 % of control and 101 % of control and 104 % of control | T/C [9]: 101 % of control and 105 % of control and 107 % of control | T/C [11]: 94 % of control and 98 % of control | T/C [12]: 94 % of control

COC(=O)C1OC(OC2=C(c3ccc(OC)cc3)C(=O)C(OC3OC(C(=O)OC)C(OC(C)=O)C(OC(C)=O)C3OC(C)=O)=C(c3ccc(OC)cc3)C2=O)C(OC(C)=O)C(OC(C)=O)C1OC(C)=O (centres undefined)
T/C (dose: 0.78 mg/kg/injection, schedule: Q01DX009 (ip), vehicle: Klucel (hydroxypropylcellulose) (HPC)): 109 % of control | T/C (dose: 1.56 mg/kg/injection, schedule: Q01DX009 (ip), vehicle: Klucel (hydroxypropylcellulose) (HPC)): 109 % of control | T/C (dose: 3.13 mg/kg/injection, schedule: Q01DX009 (ip), vehicle: Klucel (hydroxypropylcellulose) (HPC)): 99 % of control | T/C [2]: 102 % of control | T/C [4]: 93 % of control

[N-]=[N+]=C1N=CN=C1c1ncn[nH]1
T/C [1]: 104 % of control | T/C [2]: 113 % of control | T/C [4]: 121 % of control

F[B-](F)(F)F
T/C (dose: 12.5 mg/kg/injection, schedule: Q01DX009 (ip), vehicle: gum acacia): 99 % of control | T/C (dose: 25.0 mg/kg/injection, schedule: Q01DX009 (ip), vehicle: gum acacia): 118 % of control | T/C (dose: 50.0 mg/kg/injection, schedule: Q01DX009 (ip), vehicle: gum acacia): 100 % of control and 106 % of control | T/C (dose: 100.0 mg/kg/injection, schedule: Q01DX009 (ip), vehicle: gum acacia): 98 % of control and 106 % of control | T/C (dose: 200.0 mg/kg/injection, schedule: Q01DX009 (ip), vehicle: gum acacia): 108 % of control and 112 % of control | T/C (dose: 400.0 mg/kg/injection, schedule: Q01DX009 (ip), vehicle: gum acacia): 93 % of control and 99 % of control

C1OC1CN1CCN(CC2CO2)CC1 (centres undefined)
T/C (dose: 4.0 mg/kg/injection, schedule: Q01DX009 (ip), vehicle: saline with Tween-80): 103 % of control | T/C (dose: 16.0 mg/kg/injection, schedule: Q01DX009 (ip), vehicle: saline with Tween-80): 110 % of control

Cc1c2ccncc2c(C)c2c1[nH]c1ccccc12
T/C (dose: 1.25 mg/kg/injection, schedule: Q01DX009 (ip), vehicle: distilled water + Tween-80): 106 % of control | T/C (dose: 1.25 mg/kg/injection, schedule: Q01DX009 (ip), vehicle: water): 105 % of control | T/C (dose: 2.5 mg/kg/injection, schedule: Q01DX009 (ip), vehicle: distilled water + Tween-80): 117 % of control | T/C (dose: 2.5 mg/kg/injection, schedule: Q01DX009 (ip), vehicle: water): 104 % of control | T/C (dose: 5.0 mg/kg/injection, schedule: Q01DX009 (ip), vehicle: water): 117 % of control | T/C (dose: 10.0 mg/kg/injection, schedule: Q01DX009 (ip), vehicle: distilled water + Tween-80): 151 % of control | T/C (dose: 20.0 mg/kg/injection, schedule: Q01DX009 (ip), vehicle: distilled water + Tween-80): 173 % of control

CC1=C(C(N)=O)C(c2ccccc2)NC(=S)N1 (centres undefined)
T/C [6]: 106 % of control | T/C [8]: 105 % of control | T/C [10]: 100 % of control | T/C [13]: 117 % of control

N#Cc1c(N)[nH]c2ccc(Sc3ccccc3)cc12
T/C [3]: 110 % of control | T/C [5]: 94 % of control | T/C [7]: 99 % of control | T/C [9]: 107 % of control

N#CC(Br)(Br)C(N)=O
T/C (dose: 0.31 mg/kg/injection, schedule: Q01DX009 (ip), vehicle: saline): 96 % of control | T/C (dose: 1.25 mg/kg/injection, schedule: Q01DX009 (ip), vehicle: saline): 87 % of control | T/C (dose: 37.5 micrograms/kg/injection, schedule: Q01DX009 (ip), vehicle: saline): 98 % of control | T/C (dose: 75.0 micrograms/kg/injection, schedule: Q01DX009 (ip), vehicle: saline): 98 % of control | T/C (dose: 150.0 micrograms/kg/injection, schedule: Q01DX009 (ip), vehicle: saline): 96 % of control | T/C (dose: 300.0 micrograms/kg/injection, schedule: Q01DX009 (ip), vehicle: saline): 93 % of control

O=S(=O)(O)c1cc(N=C=S)ccc1/C=C/c1ccc(N=C=S)cc1S(=O)(=O)O
T/C (dose: 12.5 mg/kg/injection, schedule: Q01DX009 (ip), vehicle: saline): 96 % of control | T/C (dose: 25.0 mg/kg/injection, schedule: Q01DX009 (ip), vehicle: saline): 95 % of control | T/C [14]: 91 % of control | T/C [15]: 86 % of control

c1ccc2c3c(ccc2c1)Sc1ccc2ccccc2c1N3
T/C [14]: 112 % of control | T/C [15]: 112 % of control | T/C (dose: 200.0 mg/kg/injection, schedule: Q01DX009 (ip), vehicle: saline): 112 % of control | T/C (dose: 400.0 mg/kg/injection, schedule: Q01DX009 (ip), vehicle: saline): 123 % of control

CCCCNC(C)(C)COC(=O)/C=C/c1ccc(OCCCC)cc1
T/C [5]: 98 % of control | T/C [7]: 93 % of control | T/C [9]: 90 % of control

Cn1c2ccccc2c(=O)c2c(O)cc3c(c21)C=CC(C)(C)O3
T/C [6]: 86 % of control | T/C [8]: 89 % of control | T/C [10]: 96 % of control

CCCC(NC(=O)OCc1ccccc1)C(=O)NC(Cc1ccccc1)C(=O)O (centres undefined) (Cbz-[Nva]-Phe-OH; configuration not given here)
T/C [10]: 101 % of control | T/C [13]: 104 % of control | T/C (dose: 400.0 mg/kg/injection, schedule: Q01DX009 (ip), vehicle: Klucel (hydroxypropylcellulose) (HPC)): 89 % of control

COC1(OC)C2C=CC1CC2
T/C [5]: 108 % of control and 98 % of control | T/C [7]: 101 % of control | T/C [9]: 113 % of control and 102 % of control | T/C [11]: 114 % of control and 100 % of control | T/C [12]: 100 % of control and 102 % of control | T/C (dose: 400.0 mg/kg/injection, schedule: Q01DX009 (ip), vehicle: saline with Tween-80): 98 % of control

CCCCC/C(C=C(C#N)C#N)=C/c1ccccc1
T/C [7]: 111 % of control | T/C [9]: 106 % of control | T/C [11]: 123 % of control
